Experimental data from US10941152B2, “Pyrazole compounds as modulators of FSHR and uses thereof” (TOCOPHERX, INC., priority 2014, dated 2021).

Experiments:
[1] = target: T1, FSHR (Homo sapiens, UniProt P23945); test: EC50 of cyclic AMP production in CHO FSHR cells + EC20 FSH (Assay A); type: cell-based; details: cyclic AMP production in CHO FSHR cells + EC20 FSH (0.265 pM), HTRF
T1 construct: expressed in transfected cells; host or cells: CHO (Cho-FSHR-LUC-1-1-43)
T1 sequence (P23945 18-695): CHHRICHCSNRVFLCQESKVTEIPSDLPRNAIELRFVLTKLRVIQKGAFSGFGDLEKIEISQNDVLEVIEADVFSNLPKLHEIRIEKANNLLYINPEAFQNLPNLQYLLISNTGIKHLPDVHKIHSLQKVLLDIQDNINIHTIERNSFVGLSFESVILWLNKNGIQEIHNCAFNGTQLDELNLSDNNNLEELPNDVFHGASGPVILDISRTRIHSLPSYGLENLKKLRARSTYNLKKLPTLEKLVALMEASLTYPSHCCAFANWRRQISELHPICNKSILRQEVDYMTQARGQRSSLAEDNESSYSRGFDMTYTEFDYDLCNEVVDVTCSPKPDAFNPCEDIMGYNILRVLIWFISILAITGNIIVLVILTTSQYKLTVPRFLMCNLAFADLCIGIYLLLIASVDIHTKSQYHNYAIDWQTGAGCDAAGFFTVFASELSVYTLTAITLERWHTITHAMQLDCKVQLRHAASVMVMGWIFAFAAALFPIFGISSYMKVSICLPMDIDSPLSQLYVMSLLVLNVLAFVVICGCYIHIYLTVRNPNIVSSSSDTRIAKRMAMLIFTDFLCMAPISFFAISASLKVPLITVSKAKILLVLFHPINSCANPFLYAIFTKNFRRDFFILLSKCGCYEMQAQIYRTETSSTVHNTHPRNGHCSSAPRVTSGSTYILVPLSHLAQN
How it was run: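 cAMP was detected by HTRF as the 665/620 nm ratio. The CHO-FSHR cells had first been exposed for 1 h at 37° C to test compound together with 0.265 pM FSH (EC20) and 200 μM IBMX. Responses are given as percent of the FSH standard maximum.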

[2] = target: T2, follicle-stimulating hormone (FSH) receptor (Rattus norvegicus, UniProt P20395); test: Rat granulosa EC50 FSH (Assay B); type: cell-based
T2 construct: endogenous in cells; host or cells: rat granulosa cells
T2 sequence (P20395 18-692): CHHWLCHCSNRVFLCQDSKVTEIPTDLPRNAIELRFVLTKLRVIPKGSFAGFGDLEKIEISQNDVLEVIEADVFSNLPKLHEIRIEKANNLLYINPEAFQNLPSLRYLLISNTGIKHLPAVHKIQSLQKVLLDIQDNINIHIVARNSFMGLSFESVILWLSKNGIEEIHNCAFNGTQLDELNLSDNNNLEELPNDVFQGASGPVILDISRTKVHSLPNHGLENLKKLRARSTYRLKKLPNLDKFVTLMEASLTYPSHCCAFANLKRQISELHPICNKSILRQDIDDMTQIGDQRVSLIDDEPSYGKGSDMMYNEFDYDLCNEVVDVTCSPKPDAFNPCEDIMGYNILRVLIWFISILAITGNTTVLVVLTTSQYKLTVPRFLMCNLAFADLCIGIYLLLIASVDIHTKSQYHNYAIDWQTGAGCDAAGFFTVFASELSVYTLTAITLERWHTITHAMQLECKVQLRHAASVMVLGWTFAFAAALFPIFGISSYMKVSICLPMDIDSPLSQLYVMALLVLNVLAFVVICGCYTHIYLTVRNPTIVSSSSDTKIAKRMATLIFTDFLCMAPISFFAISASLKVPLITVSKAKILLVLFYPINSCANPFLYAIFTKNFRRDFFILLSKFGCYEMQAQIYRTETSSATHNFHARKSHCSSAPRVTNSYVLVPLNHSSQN
Experimental: Example 25. Rat granulosa EC50 FSH (Assay B)
The assay was performed pursuant to the teaching of Yanofsky et al. (2006) Allosteric activation of the follicle-stimulating hormone (FSH) receptor by selective, nonpeptide agonists (JBC 281(19): 13226-13233, which is incorporated by reference in the disclosure of the invention).

Compound | EC50 [1] | EC50 [2]
COc1cc(OC)cc(-n2nc(C(=O)N(C)C(C)(C)C)c3c2-c2cc(-c4nn(C)cc4Br)c(OC)cc2OC3)c1 [Compound 145, 8-(4-bromo-1-methyl-1H-pyrazol-3-yl)-N-tert-butyl-1-(3,5-dimethoxyphenyl)-7-methoxy-N-methyl-1,4-dihydrochromeno[4,3-c]pyrazole-3-carboxamide] | < 10 nM | 101 to 500 nM
COc1cc2c(cc1-c1cnn(CC(N)=O)c1)-c1c(c(C(=O)N3CCOCC3(C)C)nn1-c1cc(F)cc(Cl)c1)CO2 [Compound 69, 2-(4-(1-(3-chloro-5-fluorophenyl)-3-(3,3-dimethylmorpholine-4-carbonyl)-7-methoxy-1,4-dihydrochromeno[4,3-c]pyrazol-8-yl)-1H-pyrazol-1-yl)acetamide] | < 10 nM | 10 to 100 nM
COc1cc(F)cc(-n2nc(C(=O)N(C)C(C)(C)C)c3c2-c2cc(-c4ccn(C)n4)c(OC)cc2OC3)c1 [Compound 52, N-tert-butyl-1-(3-fluoro-5-methoxyphenyl)-7-methoxy-N-methyl-8-(1-methyl-1H-pyrazol-3-yl)-1,4-dihydrochromeno[4,3-c]pyrazole-3-carboxamide] | 10 to 100 nM | 101 to 500 nM
COc1cc2c(cc1-c1cncc(C#N)c1)-c1c(c(C(=O)N3CCOCC3(C)C)nn1-c1cc(F)cc(Cl)c1)CO2 [Compound 28, 5-(1-(3-chloro-5-fluorophenyl)-3-(3,3-dimethylmorpholine-4-carbonyl)-7-methoxy-1,4-dihydrochromeno[4,3-c]pyrazol-8-yl)nicotinonitrile] | < 10 nM | 101 to 500 nM
COc1cc2c(cc1-c1ccn(C)n1)-c1c(c(C(=O)N3CCOCC3(C)C)nn1-c1cc(F)cc(Cl)c1)CO2 [Compound 29, (1-(3-chloro-5-fluorophenyl)-7-methoxy-8-(1-methyl-1H-pyrazol-3-yl)-1,4-dihydrochromeno[4,3-c]pyrazol-3-yl)(3,3-dimethylmorpholino)methanone] | 10 to 100 nM | 101 to 500 nM
COc1cc(F)cc(-n2nc(C(=O)N(C)C(C)(C)C)c3c2-c2cc(-c4cncc(C#N)c4)c(OC)cc2OC3)c1 [Compound 54, N-tert-butyl-8-(5-cyanopyridin-3-yl)-1-(3-fluoro-5-methoxyphenyl)-7-methoxy-N-methyl-1,4-dihydrochromeno[4,3-c]pyrazole-3-carboxamide] | < 10 nM | 10 to 100 nM
COc1cc2c(cc1-c1cncc(C(N)=O)c1)-c1c(c(C(=O)N3CCOCC3(C)C)nn1-c1cc(F)cc(F)c1)CO2 [Compound 164] | < 10 nM | < 10 nM
COc1cc2c(cc1-c1cncc(C)c1)-c1c(c(C(=O)N(C)C(C)(C)C)nn1-c1ccsc1)CO2 [Compound 59, N-tert-butyl-7-methoxy-N-methyl-8-(5-methylpyridin-3-yl)-1-(thiophen-3-yl)-1,4-dihydrochromeno[4,3-c]pyrazole-3-carboxamide] | 10 to 100 nM | > 500 nM
COc1cc2c(cc1-c1ncnn1C)-c1c(c(C(=O)N(C)C(C)(C)C)nn1-c1ccsc1)CO2 [Compound 208] | 10 to 100 nM | > 500 nM
COc1cc(OC)cc(-n2nc(C(=O)N3CCOCC3(C)C)c3c2-c2cc(-c4cncc(C(N)=O)c4)c(OC)cc2OC3)c1 [Compound 159] | < 10 nM | 10 to 100 nM
COc1cc2c(cc1-c1cnn(CC(=O)N(C)C)c1)-c1c(c(C(=O)N3CCOCC3(C)C)nn1-c1cc(Cl)cc(Cl)c1)CO2 [Compound 92, 2-(4-(1-(3,5-dichlorophenyl)-3-(3,3-dimethylmorpholine-4-carbonyl)-7-methoxy-1,4-dihydrochromeno[4,3-c]pyrazol-8-yl)-1H-pyrazol-1-yl)-N,N-dimethylacetamide] | < 10 nM | 10 to 100 nM

Now from value to molecule:

EC50 [1] | EC50 [2] | Compound
< 10 nM | 10 to 100 nM | COc1cc2c(cc1-c1cncc(C(N)=O)c1)-c1c(c(C(=O)N(C)C(C)(C)C)nn1-c1cc(F)cc(F)c1)CO2 [Compound 161]
< 10 nM | 10 to 100 nM | COc1cc2c(cc1-c1cc(C(N)=O)ccn1)-c1c(c(C(=O)N(C)C(C)(C)C)nn1-c1cc(Cl)cc(Cl)c1)CO2 [Compound 113, N-tert-butyl-8-(4-carbamoylpyridin-2-yl)-1-(3,5-dichlorophenyl)-7-methoxy-N-methyl-1,4-dihydrochromeno[4,3-c]pyrazole-3-carboxamide]
< 10 nM | 10 to 100 nM | COc1cc2c(cc1-c1cn(CC(N)=O)nc1C)-c1c(c(C(=O)N(C)C(C)(C)C)nn1-c1cc(Cl)cc(Cl)c1)CO2 [Compound 142]
< 10 nM | 10 to 100 nM | COc1cc2c(cc1-c1nn(C)cc1Br)-c1c(c(C(=O)N(C)C(C)(C)C)nn1-c1cc(Cl)cc(Cl)c1)CO2 [Compound 148]
10 to 100 nM | 101 to 500 nM | COc1cc(Cl)cc(-n2nc(C(=O)N(C)C(C)(C)C)c3c2-c2cc(-c4ccn(C)n4)c(OC)cc2OC3)c1 [Compound 32, N-tert-butyl-1-(3-chloro-5-methoxyphenyl)-7-methoxy-N-methyl-8-(1-methyl-1H-pyrazol-3-yl)-1,4-dihydrochromeno[4,3-c]pyrazole-3-carboxamide]
< 10 nM | 10 to 100 nM | COc1cc2c(cc1-c1cncc(C(=O)N(C)C)c1)-c1c(c(C(=O)N3CCOCC3(C)C)nn1-c1cc(Cl)cc(Cl)c1)CO2 [Compound 101, 5-(1-(3,5-dichlorophenyl)-3-(3,3-dimethylmorpholine-4-carbonyl)-7-methoxy-1,4-dihydrochromeno[4,3-c]pyrazol-8-yl)-N,N-dimethylnicotinamide]
10 to 100 nM | 101 to 500 nM | COc1cc2c(cc1-c1cccc(C(=O)O)c1)-c1c(c(C(=O)N(C)C(C)(C)C)nn1-c1cc(Cl)cc(Cl)c1)CO2 [Compound 179]
< 10 nM | 101 to 500 nM | CCOC(=O)C1CC1c1cc2c(cc1OC)OCc1c(C(=O)N(C)C(C)(C)C)nn(-c3cc(Cl)cc(Cl)c3)c1-2 (centres unmarked) [Compound 196]
< 10 nM | 101 to 500 nM | COc1cc(C(N)=O)cc(-c2cc3c(cc2OC)OCc2c(C(=O)N(C)C(C)(C)C)nn(-c4cc(Cl)cc(Cl)c4)c2-3)n1 [Compound 115, N-tert-butyl-8-(4-carbamoyl-6-methoxypyridin-2-yl)-1-(3,5-dichlorophenyl)-7-methoxy-N-methyl-1,4-dihydrochromeno[4,3-c]pyrazole-3-carboxamide]
< 10 nM | 101 to 500 nM | COC(=O)Cn1nc(C)c(-c2cc3c(cc2OC)OCc2c(C(=O)N(C)C(C)(C)C)nn(-c4cc(Cl)cc(Cl)c4)c2-3)c1C [Compound 138, methyl 2-(4-(3-(tert-butyl(methyl)carbamoyl)-1-(3,5-dichlorophenyl)-7-methoxy-1,4-dihydrochromeno[4,3-c]pyrazol-8-yl)-3,5-dimethyl-1H-pyrazol-1-yl)acetate]
< 10 nM | 10 to 100 nM | COc1cc2c(cc1-c1cncc(S(N)(=O)=O)c1)-c1c(c(C(=O)N(C)C(C)(C)C)nn1-c1cc(Cl)cc(Cl)c1)CO2 [Compound 66, N-tert-butyl-1-(3,5-dichlorophenyl)-7-methoxy-N-methyl-8-(5-sulfamoylpyridin-3-yl)-1,4-dihydrochromeno[4,3-c]pyrazole-3-carboxamide]
